Key:
Type in all cases: in vivo
[1] = Antioxidant (NAC) experiments in mice; details: NAC 10 mg/kg IP, H2O2 1.5 μmol, PCL-2 and D-cysteine 0.05 μmol each
Excerpt: A Xenogen IVIS Spectrum instrument (Caliper Life Sciences, Hopkinton, Mass.) was used for bioluminescent imaging in all animal experiments. Mice were anesthetized prior to injection and during imaging via inhalation of isoflurane. Phosphate Buffered Saline (PBS) was purchased from Thermo Fisher Scientific (Waltham, Mass.), and saline (0.9%) was made from sodium chloride and Millipore water. Isoflurane was purchased from Phoenix Pharmaceuticals, Inc. (St. Joseph, Mo.), and pharmaceutical grade DMSO was purchased from Sigma-Aldrich (St. Louis, Mo.). Medical grade oxygen was purchased from Praxair (Danbury, Conn.). FVB-luc^+ (FVB-Tg(CAG-luc,-GFP)L2G85Chco/J) mice were bred at UC Berkeley, and were single or group-housed on a 12:12 light-dark cycle at 22° C. with free access to food and water. All studies were approved and performed according to the guidelines of the Animal Care and Use Committee of the University of California, Berkeley. Unshaven, male FVB-luc^+ mice, were anesthetized with isoflurane and injected IP with NAC (10 mg/kg in 25 μL of PBS, pH 7-8) or PBS (25 μL). After 2 min, the mice were injected IP with a mixture of PCL-2 and D-cysteine (0.05 μmol each, in 50 μL of 1:1 DMSO:PBS) immediately prior to IP injection of H2O2 (1.5 μmol in 75 μL of PBS). […]

caspase 8 = molecular target: T1, caspase 8 (Mus musculus, UniProt O89110); assay: Lipopolysaccharide inflammation model, caspase 8 detection with IETDC; details: pan-caspase inhibitor 1 μmol IP, LPS-treated mice
T1 construct: from tissue; host or cells: living FVB-luc+ mice (whole animal, IP injection) after LPS challenge
T1 sequence (O89110 219-376 limits assumed): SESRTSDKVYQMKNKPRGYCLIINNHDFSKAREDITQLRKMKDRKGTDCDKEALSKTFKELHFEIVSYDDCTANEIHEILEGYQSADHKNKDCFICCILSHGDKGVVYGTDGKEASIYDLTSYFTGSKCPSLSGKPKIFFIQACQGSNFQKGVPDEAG
T1 sequence (O89110 388-480 limits assumed): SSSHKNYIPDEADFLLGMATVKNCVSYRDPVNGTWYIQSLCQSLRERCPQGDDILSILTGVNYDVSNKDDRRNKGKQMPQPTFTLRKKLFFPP
Excerpt: (§1) A Xenogen IVIS Spectrum instrument (Caliper Life Sciences, Hopkinton, Mass.) was used for bioluminescent imaging in all animal experiments. Mice were anesthetized prior to injection and during imaging via inhalation of isoflurane. Phosphate Buffered Saline (PBS) was purchased from Thermo Fisher Scientific (Waltham, Mass.), and saline (0.9%) was made from sodium chloride and Millipore water. Isoflurane was purchased from Phoenix Pharmaceuticals, Inc. (St. Joseph, Mo.), and pharmaceutical grade DMSO was purchased from Sigma-Aldrich (St. Louis, Mo.). Medical grade oxygen was purchased from Praxair (Danbury, Conn.).
(§2) FVB-luc^+ (FVB-Tg(CAG-luc,-GFP)L2G85Chco/J) mice were bred at UC Berkeley, and were single or group-housed on a 12:12 light-dark cycle at 22° C. with free access to food and water. All studies were approved and performed according to the guidelines of the Animal Care and Use Committee of the University of California, Berkeley.
Unshaven, female FVB-luc^+ mice, aged 2-5 months, were anesthetized with isoflurane and injected IP with lipopolysaccharides (LPS, 3 mg/kg in 50 μL of saline) or saline (50 μL). For studies with PCL-2 alone, mice were injected IP with either apocynin (10 mg/kg in 20 μL of DMSO) or DMSO (20 μL) 6 h after LPS injection. […]

H2O2 and caspase 8 = assay: Lipopolysaccharide inflammation model, dual detection with PCL-2 and IETDC; details: ascorbic acid 200 mg/kg and z-VD-OPh 1 μmol used together, LPS-treated mice
Excerpt: as §1, §2
For studies with PCL-2 and IETDC, mice were injected IP with ascorbic acid (200 mg/kg in 30 μL of saline) or the saline vehicle (30 μL) 30 min prior to IP injection of LPS (3 mg/kg in 50 μL of saline) or saline (50 μL). Two hours after injection of LPS, z-VD(OMe)-OPh (1 μmol in 20 μL of DMSO) or the vehicle, DMSO (20 μL), was injected IP. […]

FVB-luc^+ mice = assay: Control: effect of inhibitors and antioxidants on HCBT and D-cysteine luciferin signal in mice; details: apocynin 10 mg/kg or z-VD-OPh 1 μmol IP; HCBT and D-cysteine 0.01 μmol each
Experimental: (a) Total photon fluxes, 0-15 min post-injection, for mice (n=3) injected with apocynin (IP, 10 mg/kg in 20 μL DMSO) or vehicle (IP, 20 μL DMSO) two min prior to injections of a mixture of HCBT and D-cysteine (IP, 0.01 μmol each, in 50 μL of 1:1 DMSO:PBS). (b) Total photon fluxes, 15-45 min post-injection, for mice (n=3) injected with z-VD(OMe)-OPh (IP, 1 μmol in 20 μL DMSO) or vehicle (IP, 20 μL DMSO) 30 min prior to injections of a mixture of HCBT and D-cysteine (IP, 0.01 μmol each, in 50 μL of 1:1 DMSO:PBS). Error bars are ±SEM.
FIG. 18 depicts bioluminescent signals from HCBT and D-cysteine with ascorbic acid in FVB-luc^+ mice. Total photon fluxes, 30-60 min post-injection, for mice (n=3-4) injected with ascorbic acid (IP, 200 mg/kg in 30 μL saline) or vehicle (IP, 30 μL saline) 4.5 h prior to injections of a mixture of HCBT and D-cysteine (IP, 0.01 μmol each, in 50 μL of 1:1 DMSO:PBS). Error bars are ±SEM.

| attenuation of the IETDC signal (caspase 8) | decrease in dual-probe bioluminescent signal (H2O2 and caspase 8) | SMILES | effect of NAC on the PCL-2 bioluminescent signal [1] | effect on the luciferin signal from HCBT and D-cysteine in vivo (FVB-luc^+ mice) |
| --- | --- | --- | --- | --- |
| – | – | CC(=O)N[C@@H](CS)C(=O)O [NAC, N-acetyl-L-cysteine] | considerably attenuated | – |
| 34% | 30% | COC(=O)CC(NC(=O)C(NC(=O)OCc1ccccc1)C(C)C)C(=O)COc1c(F)cccc1F (stereo not shown) [z-VD-OPh] | – | do not alter the luciferin signal |
